Results from ChEMBL document CHEMBL4732135, “Structural and mechanistic insights into the inhibition of amyloid-β aggregation by Aβ fragment derived synthetic peptides” (Eur J Med Chem, 2021).
Square brackets hold non-standard residues; d marks the D form. Peptide text beside a SMILES is read from it. Phe(4-NO2) = N[C@@H](Cc1ccc([N+](=O)[O-])cc1)C(=O)O; Phe(4-CF3) = N[C@@H](Cc1ccc(C(F)(F)F)cc1)C(=O)O; Phe(4-tBu) = CC(C)(C)c1ccc(C[C@H](N)C(=O)O)cc1; Phe(4-Cl) = N[C@@H](Cc1ccc(Cl)cc1)C(=O)O; Phe(4-Me) = Cc1ccc(C[C@H](N)C(=O)O)cc1; Ala(cPr) = N[C@@H](CC1CC1)C(=O)O; 4Pal = N[C@@H](Cc1ccncc1)C(=O)O; β3hP = O=C(O)C[C@@H]1CCCN1; Ac5c = NC1(C(=O)O)CCCC1; βAla = NCCC(=O)O

How the values were obtained:
PC-12 [1] = assay: Neuroprotective activity against amyloid beta 42-induced toxicity in rat PC-12 cells assessed as cell viability at 10 uM measured after 6 hrs by MTT assay (reference value: 74.05%); assay type: functional; conditions: read-out: Activity
PC-12 [2] = assay: Neuroprotective activity against amyloid beta 42-induced toxicity in rat PC-12 cells assessed as cell viability at 4 uM measured after 6 hrs by MTT assay (reference value: 74.05%); assay type: functional; conditions: read-out: Activity
[3] = molecular target: Amyloid-beta precursor protein (Homo sapiens) (UniProt P05067); assay: Inhibition of amyloid beta (1 to 42) (unknown origin) assessed as reduction in peptide aggregation at 2 uM measured after 24 hrs by thioflavin-T fluorescence assay relative to control
[4] = molecular target: Amyloid-beta precursor protein (Homo sapiens) (UniProt P05067); assay: Inhibition of amyloid beta (1 to 42) (unknown origin) assessed as reduction in peptide aggregation at 4 uM measured after 24 hrs by thioflavin-T fluorescence assay relative to control
PC-12 [5] = assay: Neuroprotective activity against amyloid beta 42-induced toxicity in rat PC-12 cells assessed as cell viability at 2 uM measured after 6 hrs by MTT assay (reference value: 74.05%); assay type: functional; conditions: read-out: Activity
[6] = molecular target: Amyloid-beta precursor protein (Homo sapiens) (UniProt P05067); assay: Inhibition of amyloid beta (1 to 42) (unknown origin) assessed as reduction in peptide aggregation at 10 uM measured after 24 hrs by thioflavin-T fluorescence assay relative to control

Chain of Amyloid-beta precursor protein (Homo sapiens) (P05067 whole entry): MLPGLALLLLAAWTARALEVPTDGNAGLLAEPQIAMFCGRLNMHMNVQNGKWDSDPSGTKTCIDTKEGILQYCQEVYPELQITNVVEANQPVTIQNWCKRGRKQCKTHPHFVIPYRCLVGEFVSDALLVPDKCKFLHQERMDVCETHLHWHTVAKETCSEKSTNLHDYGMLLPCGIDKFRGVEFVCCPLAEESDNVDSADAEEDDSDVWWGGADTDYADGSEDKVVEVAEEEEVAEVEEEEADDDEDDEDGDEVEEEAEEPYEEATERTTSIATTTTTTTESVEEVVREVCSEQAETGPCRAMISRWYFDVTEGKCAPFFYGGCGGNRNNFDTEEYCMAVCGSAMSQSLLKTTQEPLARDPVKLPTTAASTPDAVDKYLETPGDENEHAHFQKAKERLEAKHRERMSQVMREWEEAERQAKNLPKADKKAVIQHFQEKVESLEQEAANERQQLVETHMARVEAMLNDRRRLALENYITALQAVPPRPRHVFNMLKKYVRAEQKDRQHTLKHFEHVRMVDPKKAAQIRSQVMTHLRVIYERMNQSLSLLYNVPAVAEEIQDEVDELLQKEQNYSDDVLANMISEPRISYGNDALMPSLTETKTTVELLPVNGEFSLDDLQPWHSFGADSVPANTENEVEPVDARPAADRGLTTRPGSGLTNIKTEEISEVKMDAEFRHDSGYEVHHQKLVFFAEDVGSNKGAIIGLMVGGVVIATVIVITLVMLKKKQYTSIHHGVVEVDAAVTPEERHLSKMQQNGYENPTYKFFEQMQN

Row | SMILES | viability at 10 µM (PC-12 [1]) | viability at 4 µM (PC-12 [2]) | inhibition [3] | inhibition [4] | viability at 2 µM (PC-12 [5]) | inhibition [6]
1 | CC[C@H](C)[C@H](NC(=O)C[C@@H]1CCCN1C(=O)C[C@@H]1CCCN1)C(=O)N[C@@H](C)C(=O)O (H-[β3hP][β3hP]IA-OH) | 100% | 75.5% | 78.9% | 89.7% | 97.9% | 100%
2 | CC[C@H](C)[C@H](NC(=O)C1(NC(=O)[C@@H](N)C(C)C)CCCC1)C(=O)N[C@@H](C)C(=O)O (H-V[Ac5c]IA-OH) | 100% | 97.1% | 100% | 100% | 89% | 100%
3 | CC[C@H](C)[C@H](NC(=O)C[C@@H]1CCCN1C(=O)[C@@H](N)C(C)C)C(=O)N[C@@H](C)C(=O)O (H-V[β3hP]IA-OH) | 66.4% | 80.4% | 96.1% | 99.2% | 91.1% | 100%
4 | CC[C@H](C)[C@H](NC(=O)CNC(=O)CN)C(=O)N[C@@H](C)C(=O)O (H-GGIA-OH) | 66.8% | 72.8% | 93.6% | 95.2% | 100% | 98.3%
5 | CC[C@H](C)[C@H](NC(=O)[C@@H](NC(=O)[C@@H](N)Cc1ccc([N+](=O)[O-])cc1)C(C)C)C(=O)N[C@@H](C)C(=O)O (H-[Phe(4-NO2)]VIA-OH) | 73.7% | 100% | 94.8% | 78.4% | 94.1% | 50.4%
6 | CC[C@H](C)[C@H](NC(=O)[C@@H](NC(=O)[C@@H](N)C(C)C)C(C)C)C(=O)N[C@@H](CCC(N)=O)C(=O)O (H-VVIQ-OH) | 74.6% | 75.2% | 24.2% | 26.5% | 76.9% | 23.4%
7 | CC[C@H](C)[C@H](NC(=O)[C@@H](NC(=O)[C@@H](N)Cc1ccncc1)C(C)C)C(=O)N[C@@H](C)C(=O)O (H-[4Pal]VIA-OH) | 96.8% | 78.2% | 42.7% | 44.2% | 82% | 46%
8 | CC[C@H](C)[C@H](NC(=O)[C@@H](NC(=O)[C@@H](N)Cc1ccc(Cl)cc1)C(C)C)C(=O)N[C@@H](C)C(=O)O (H-[Phe(4-Cl)]VIA-OH) | 72.3% | 73.9% | 46.4% | 57.4% | 80.1% | 75.8%
9 | CC[C@H](C)[C@H](NC(=O)[C@@H](NC(=O)[C@@H](N)C(C)C)C(C)C)C(=O)N[C@@H](CC(N)=O)C(=O)O (H-VVIN-OH) | 69.2% | 67.4% | 38.6% | 59.9% | 93.6% | 71.5%
10 | CC[C@H](C)[C@H](NC(=O)[C@@H](NC(=O)[C@@H](N)C(C)C)C(C)C)C(=O)NCCC(=O)O (H-VVI[βAla]-OH) | 87.3% | 93.1% | 0% | 0% | 97.8% | 13%
11 | CC[C@H](C)[C@H](NC(=O)[C@@H](NC(=O)[C@@H](N)Cc1ccc(C)cc1)C(C)C)C(=O)N[C@@H](C)C(=O)O (H-[Phe(4-Me)]VIA-OH) | 72.6% | 68.4% | 0% | 3.2% | 71.7% | 26.8%
12 | CC[C@H](C)[C@H](NC(=O)[C@@H](NC(=O)[C@@H](N)Cc1ccc(C(C)(C)C)cc1)C(C)C)C(=O)N[C@@H](C)C(=O)O (H-[Phe(4-tBu)]VIA-OH) | 80.2% | 87.3% | 78.6% | 57.4% | 93.6% | 42%
13 | CC(C)[C@H](N)C(=O)N[C@H](C(=O)N[C@@H](CC1CC1)C(=O)N[C@@H](C)C(=O)O)C(C)C (H-VV[Ala(cPr)]A-OH) | 65.9% | 77% | 0% | 0% | 68.4% | 0%
14 | CC[C@H](C)[C@H](NC(=O)[C@@H](NC(=O)[C@@H](N)Cc1ccc(C(F)(F)F)cc1)C(C)C)C(=O)N[C@@H](C)C(=O)O (H-[Phe(4-CF3)]VIA-OH) | 86.2% | 88.7% | 41.8% | 20.4% | 92.1% | 4.5%
